Reference: patent publication US8207190B2, “Enantiomer of tenatoprazole and the use thereof in therapy” (Mitsubishi Tanabe Pharma Corporation, priority 2003, dated 2012)
Converted amounts (≈) assume the structure as drawn. Read-outs that look alike come from different tables or passages of the source.

Assays:
clinical = conditions: human, plasma
[1] = versus other proton pump inhibitors such as omeprazole or lansoprazole; cited from earlier work
[2] = solubility of (+), (−) and racemic forms of tenatoprazole in water; format: physicochemical; conditions: for solubility in water relative to the racemic form: versus racemic form
[3] = chiral pharmacokinetic study, plasma analysis after chiral separation in genotyped subjects
Method: In parallel, a chiral pharmacokinetic study was conducted to assess the preponderance of the pharmacokinetic characteristics of the (−) isomer in the pharmacokinetics of racemic tenatoprazole.
These subjects have a very weak metabolic activity concerning CYP2C19, which is responsible for the metabolism of tenatoprazole. […] These subjects are qualified as slow metabolisers.

Row | SMILES | half-life (clinical; 20 mg) [h] | half-life (clinical; 80 mg) [h] | plasma half-life relative to other proton pump inhibitors [1] | solubility [2] [µg/mL] | Solubility (water) [2] [µg/mL] | solubility in water relative to the racemic form [2] | plasma level of the isomer compared with the other isomer ([3]; slow metabolisers, CYP2C19*2/*2 genotype, plasma after chiral separation) | Solubility (water) ([2]; listed as (−) form) [µg/mL] | plasma concentration of the isomer compared with the other isomer ([3]; rapid metabolisers, CYP2C19*1/*1 genotype)
1 | COc1ccc2[nH]c([S+]([O-])Cc3ncc(C)c(OC)c3C)nc2n1 (racemic) [(±)racemic form, (+)-5-methoxy-2-{[(4-methoxy-3,5-dimethyl-2-pyridyl)methyl]sulfinyl}imidazo-[4,5-b]pyridine] | ~7 | ~9 | about seven | 34.6 (≈ 99.9 µM) |  |  |  |  | 
2 | COc1ccc2[nH]c([S+]([O-])Cc3ncc(C)c(OC)c3C)nc2n1 (single isomer, unassigned; (+)) [(+) form] |  |  |  |  | 93.0 (≈ 268 µM) | ~3 times | highly significant increase |  | 
3 | COc1ccc2[nH]c([S+]([O-])Cc3ncc(C)c(OC)c3C)nc2n1 (single isomer, unassigned; (-)) [(−) enantiomer] |  |  |  |  |  | over 2 times |  | 74.4 (≈ 215 µM) | higher concentration
